Laboratory results as given in patent US8637556B2, “Linked Myc-max small molecule inhibitors” (University of Pittsburgh—Of the Commonwealth System of …, priority 2009, dated 2014).
Read-outs that look alike come from different tables or passages of the source.

What was measured:
[1] = system: HL60 promyelocytic leukemia cells; assay: HL60 cell growth inhibition (MTT assay); format: cell-based; settings: Homo sapiens, HL-60; Table 3; MTT, third day; read-out: Growth inhibition HL60
Description: (§1) These assays were performed as previously described using HL60 promyelocytic leukemia cells and Daudi Burkitt lymphoma cells, each of which expresses high levels of endogenous c-Myc (Wang, H. et al. Mol. Cancer Ther. 6, 2399-408 (2007)). As controls for non-specific effects of bivalent compounds, we utilized a c-Myc nulllizygous strain of rat fibroblasts (Mateyak, M. K., et al. Cell Growth & Differentiation 8, 1039-48 (1997)) expressing the c-Myc target genes MT-MC1 and HMGAIb, each of which restores a normal growth rate as well as the TGR1 fibroblast line from which the nullizygous line was derived (Wang, H. et al. Mol. Cancer Ther. 6, 2399-408 (2007); Mateyak, M. K., et al. Cell Growth & Differentiation 8, 1039-48 (1997); and Rothermund, K. et al. Cancer Research 65, 2097-107 (2005)). […] Cell quantification was performed on triplicate wells over the ensuing 4-5 days without changing the medium by measuring the absorbance at 490 nm using the MTT assay (Mosmann, T. Journal of Immunological Methods 65, 55-63 (1983)). IC50 values were estimated from linear regression of the inhibition data at the third day of each experiment.
(§2) We evaluated the efficacy of the linked compounds 11, 12, 13, 16, 17, 18 in inhibiting the c-Myc-Max interaction by measuring the binding of a target DNA sequence (E-Box) by the protein heterodimers in an electrophoretic mobility shift assay (EMSA). […] A fluorinated substitute of 14, 24, the choice of which was based upon the results of structure activity relationship studies described in Wang, H. et al. (Mol. Cancer Ther. 6, 2399-408 (2007)), was employed at this purpose (Muller, K., et al. Science 317, 1881-6 (2007) and Kirk, K. L. Current Topics in Medicinal Chemistry 6, 1447-56 (2006)).

[2] = system: Daudi Burkitt lymphoma cells; assay: Burkitt's lymphoma cell growth inhibition (MTT assay); format: cell-based; settings: Homo sapiens, Table 3, MTT, third day, read-out: Growth inhibition BL
Description: as §1, §2

[3] = biological target: T1, c-Myc353-437 (monomeric c-Myc bHLH-ZIP) (Homo sapiens, UniProt P01106); assay: Fluorescence polarization titration, c-Myc bHLH-ZIP binding; settings: for c-Myc binding affinity (in words): FP; for Kd: Table 1
T1 construct: recombinant monomeric c Myc bHLH-ZIP (amino acids 353-437); 6xHis with TEV site (N, cleaved yes); made in house; host or cells: E. coli BL21DE3(pLysS)
Excerpt: A c-Myc353-437 full-length bHLH-ZIP domain and its truncated version c-Myc390-439 were produced from the c-Myc/pET SKB3 construct, kindly supplied by Dr. S. K. Nair (University of Illinois, Urbana-Champaign), by insertion into the pET151D vector, encoding an N-terminal hexahistidine (6× His), separated by a TEV protease digestion site, with the TOPO® ligation system, and over-expressed in E. coli BL21DE3(pLysS). The 6× His tagged human Max isoform p21, with low homodimerization affinity^70, cloned into the pQE10 vector (Qiagen, Inc.), was over-expressed in E. coli M15(pRep4). Bacterial cultures were grown at 37° C. in LB medium to OD600≈0.8, then induced with 0.5 mM IPTG for 5 hours. Proteins were purified by Ni-agarose chromatography with a pH gradient elution. The 6× His tag of c-MYC353-437 and c-Myc390-439 was cleaved using TEV protease (the TEV protease was expressed in a pET24 vector [courtesy of S. K. Nair] and purified by Ni-agarose chromatography under native conditions). All the proteins were further purified by HPLC and lyophilized. Protein concentrations were determined by measurement of OD280. The synthetic peptide c-Myc363-381 is described in Follis, A. V., Hammoudeh, D. I., Wang, H., Prochownik, E & Metallo, S. J. Structural rationale for the coupled binding and unfolding of the c-Myc oncoprotein by small molecules. Chemistry & Biology 15, 1149-1155 (2008).
Samples were analyzed in a Photon Technology International QuantaMaster fluorimeter (Birmingham, N.J.) equipped with polymer sheet polarizers. Titration experiments were performed upon serial dilution of 1:1 equimolar solution of inhibitor and either c-Myc353-437, c-Myc390-439 or c-Myc363-381 in a 1×PBS buffer (137 mM NaCl, 2.7 mM KCl, 4.3 mM Na2HPO4, 1.4 mM KH2PO4, pH=7.4), 5% DMSO, over concentrations ranging between 200 μM and 1.5 nM. Excitation and emission wavelengths were independently determined for each inhibitor. Reported data represent the average of at least three independent experiments. Data were fit to a quadratic equation derived from the thermodynamic expression of binding equilibrium:
[formula] where [C]0 represents the total concentration of inhibitor and of c-Myc peptide. The value of KD was determined from the experimental polarization data by fitting to Eq. 2 using KaleidaGraph (Synergy Software, Reading, Pa.) where pol0 is the polarization in the absence of binding and Δpol is the total change in polarization (Park, S. H. & Raines, R. T. Fluorescence polarization assay to quantify protein-protein interactions. Methods in Molecular Biology 261, 161-6 (2004)).
[formula] Due to the very tight binding of some of the tested compounds, it was impossible to perform a full binding titration with an acceptable fluorescence intensity, therefore the polo parameter was experimentally determined from samples of each compound in the absence of c-Myc353-437 at a concentration of 25 μM. Binding specificity experiments were performed by monitoring the FP of 10 μM inhibitors solutions in the above-described buffer in the presence of equimolar p21 Max. […] Circular Dichroism.
Also in this case the c-Myc binding affinity was little affected by the introduction of the linker chain (Table 1, FIG. 11).
We then measured the affinity of the synthesized bivalent inhibitors, by monitoring the FP of the compounds nitrobenzofurazan moiety. […] The estimated free energy of binding of the bivalent compounds was roughly proportional to the sum of those of their monovalent components. In the thermodynamic analysis of multivalent binding a ΔG^s term is used to relate the free energy of binding of a multivalent compound to the sum of those of its monovalent components. This term implies the diverse energy contributions resulting from the linking of independent binding components. The ΔG^s term generally constitutes a negative contribution to the binding affinity of distinct binding components connected by a flexible linker to a given target.

[4] = FP titration with c-Myc353-437, 1xPBS pH 7.4, 5% DMSO, read-out: KD (c-Myc affinity, monovalent)

T1 sequence (P01106 368-452): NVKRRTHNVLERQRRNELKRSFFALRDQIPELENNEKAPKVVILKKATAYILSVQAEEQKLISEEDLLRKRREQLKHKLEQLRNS

CCc1ccc(C=C2SC(=S)NC2=O)cc1 [compound 2, (Z,E)-5-(4-ethyl-benzylidene)-2-thioxo-thiazolidin-4-one, reference compound]
IC50 [1]: 50 µM
IC50 [2]: 40 µM

O=[N+]([O-])c1ccc(Nc2ccccc2)c2nonc12 [compound 3]
c-Myc binding affinity (in words) [3]: minor loss of c-Myc affinity
Kd [3, 4]: 7 ± 1 µM

CN(C)c1ccc([N+](=O)[O-])c2nonc12 [compound 4]
c-Myc binding affinity (in words) [3]: complete loss of binding affinity
Kd [3, 4]: > 200 µM

O=C(O)c1ccccc1Nc1ccc([N+](=O)[O-])c2nonc12 [compound 5]
Kd [3, 4]: 13 ± 5 µM

O=C(O)c1cccc(Nc2ccc([N+](=O)[O-])c3nonc23)c1 [compound 6]
Kd [3, 4]: 16 ± 6 µM

O=C(O)c1ccc(Nc2ccc([N+](=O)[O-])c3nonc23)cc1 [compound 7]
Kd [3, 4]: 3 ± 1 µM
c-Myc binding, times tighter than 5 and 6 ([3]; relative to compounds 5 and 6): ~5 times

CC(=O)NCCCCCNC(=O)c1ccc(C=C2SC(=S)NC2=O)cc1 [compound 10]
Kd [3, 4]: 90 ± 40 µM

CCc1ccc(C=C2SC(=O)N(CCCCNC(=O)c3ccc(Nc4ccc([N+](=O)[O-])c5nonc45)cc3)C2=O)cc1 [compound 21]
IC50 [1]: 7 to 9 µM
Kd ([3]; FP of nitrobenzofurazan moiety, c-Myc353-437, read-out: KD (c-Myc affinity, bivalent)): 0.004 ± 0.001 µM
IC50 [2]: 14 to 16 µM
